These results are taken from US20070213311A1, “Modulators of 11-beta hydroxyl steroid dehydrogenase type 1, pharmaceutical compositions thereof, and methods of using the same” (priority 2006, published 2007).

The term IC50 denotes the concentration needed to halve the response being measured.

In test [1] the target is T1, full-length human 11βHSD1 (Homo sapiens, UniProt P28845).
T1 construct: made in house; host or cells: HEK-293 transient transfectants; clarified lysate, not purified
In words: Enzymatic assay of 11βHSD1 (Scintillation Proximity Assay, clarified lysates of HEK-293 transfectants). The class given is biochemical. To be noted: SPA, 25 nM 3H-cortisone, 400 μM NADPH, 37° C. for one hour. As to the method:
Enzymatic Assay of 11βHSD1
All in vitro assays were performed with clarified lysates as the source of 11βHSD1 activity. HEK-293 transient transfectants expressing an epitope-tagged version of full-length human 11βHSD1 were harvested by centrifugation. Roughly 2×10^7 cells were resuspended in 40 mL of lysis buffer (25 mM Tris-HCl, pH 7.5, 0.1 M NaCl, 1 mM MgCl2 and 250 mM sucrose) and lysed in a microfluidizer. Lysates were clarified by centrifugation and the supernatants were aliquoted and frozen.
Inhibition of 11βHSD1 by test compounds was assessed in vitro by a Scintillation Proximity Assay (SPA). Dry test compounds were dissolved at 5 mM in DMSO. These were diluted in DMSO to suitable concentrations for the SPA assay. 0.8 μL of 2-fold serial dilutions of compounds were dotted on 384 well plates in DMSO such that 3 logs of compound concentration were covered. 20 μL of clarified lysate was added to each well. Reactions were initiated by addition of 20 μL of substrate-cofactor mix in assay buffer (25 mM Tris-HCl, pH 7.5, 0.1 M NaCl, 1 mM MgCl2) to final concentrations of 400 μM NADPH, 25 nM ^3H-cortisone and 0.007% Triton X-100. Plates were incubated at 37° C. for one hour. […] Quenched plates were incubated for a minimum of 30 minutes at RT prior to reading on a Topcount scintillation counter. […]
Background: Scintillation proximity formats need no separation of bound from free tracer.

A further test has as its target T2, 11βHSD1 in the eye (Homo sapiens, UniProt P28845).
T2 construct: 11βHSD1 has been localized to NPE cells; host or cells: eye of healthy volunteers, in vivo
As to conditions: healthy volunteers, after seven days of carbenoxolone treatment; cited from earlier work.

Some results are limits rather than exact numbers.

T2 sequence (P28845 whole entry): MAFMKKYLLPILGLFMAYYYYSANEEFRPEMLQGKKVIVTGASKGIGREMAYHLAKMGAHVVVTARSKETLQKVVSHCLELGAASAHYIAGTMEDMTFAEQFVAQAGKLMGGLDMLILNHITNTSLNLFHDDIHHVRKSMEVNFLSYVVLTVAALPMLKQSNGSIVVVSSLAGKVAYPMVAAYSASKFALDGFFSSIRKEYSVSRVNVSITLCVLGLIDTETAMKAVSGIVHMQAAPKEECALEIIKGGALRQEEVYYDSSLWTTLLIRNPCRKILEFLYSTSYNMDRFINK
T1 sequence (P28845 whole entry): as above

In turn, `O=C1OC2(CCN(C(=O)C(O)c3ccc(Br)cc3F)C2)c2ccccc21` (centres unmarked) [Example 1, 1′-[(4-Bromo-2-fluorophenyl)(hydroxy)acetyl]-3H-spiro[2-benzofuran-1,3′-pyrrolidin]-3-one] returned an IC50 in test [1] of less than 1000 nM. For `CC1(C)[C@@H](OC(=O)CCC(=O)O)CC[C@]2(C)[C@H]3C(=O)C=C4[C@@H]5C[C@@](C)(C(=O)O)CC[C@]5(C)CC[C@@]4(C)[C@]3(C)CC[C@@H]12` [carbenoxolone], the “IOP was reduced by” value on 11βHSD1 in the eye was 18%.
